Test results taken from PubChem BioAssay (NCI).
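Dose response: 5 concentrations. Exposure: 48 h. Format: 96-well plates. Endpoint: linear interpolation; highest concentration if not reached. TGI marks complete inhibition of growth.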

Columns and labels:
Experiment in all cases: NCI-60 cell line screen, 48 h
SF-268 CNS = test system: SF-268 CNS
KM12 colon = test system: KM12 colon
NCI-H522 lung = test system: NCI-H522 lung
HT29 colon = test system: HT29 colon
SNB-75 CNS = test system: SNB-75 CNS
K-562 leukemia = test system: K-562 leukemia
DU-145 prostate = test system: DU-145 prostate
MDA-N = test system: MDA-N
NCI-H226 lung = test system: NCI-H226 lung

Row | Compound | TGI (SF-268 CNS) | TGI (KM12 colon) | TGI (NCI-H522 lung) | TGI (HT29 colon) | TGI (SNB-75 CNS) | TGI (K-562 leukemia) | TGI (DU-145 prostate) | TGI (MDA-N) | TGI (NCI-H226 lung)
1 | Cc1nc2c(Br)cc(Br)cc2c(=O)n1-c1ccccc1NC1OC(CO)C(O)C(O)C1O (configuration not stated) | > 100 µM | > 100 µM | > 100 µM | > 100 µM | > 100 µM | > 100 µM | > 100 µM | > 100 µM | > 100 µM
2 | Cc1nc(NC(C)(CO)CO)nc(N/N=C/c2ccc(Cl)cc2)c1C(=O)Nc1ccc(Cl)cc1 | > 100 µM | > 100 µM | > 100 µM | > 100 µM | > 100 µM | > 100 µM | > 100 µM | > 100 µM | > 100 µM
3 | CCOP(=O)(/C=C/n1cc(C)c(=O)[nH]c1=O)OCC | > 100 µM | > 100 µM | > 100 µM | > 100 µM | > 100 µM | > 100 µM | > 100 µM | > 100 µM | > 100 µM
4 | Cc1c(C)c2c(c(N)c1C#N)C(=O)N(N)C2=O | > 100 µM | > 100 µM | > 100 µM | > 100 µM | > 100 µM | > 100 µM | > 100 µM | > 100 µM | > 100 µM
5 | Cn1/c(=N\N=C2\C=C3CCCCC3(C)CC2)sc2ccccc21 (configuration not stated) | > 100 µM | > 100 µM | > 100 µM | > 100 µM | > 100 µM | > 100 µM | > 100 µM | > 100 µM | > 100 µM
6 | O=C1c2ccccc2-c2nc3ccncc3n21 | > 100 µM | > 100 µM | > 100 µM | > 100 µM | > 100 µM | > 100 µM | > 100 µM | > 100 µM | > 100 µM
7 | C[n+]1cccc2ccc3cccnc3c21 | 55.8 µM | 96.6 µM | 35.1 µM | > 100 µM | 65.1 µM | > 100 µM | > 100 µM | > 100 µM | 70 µM
8 | CC(Nc1ccc(Cl)cc1)c1ccncc1 (configuration not stated) | > 100 µM | > 100 µM | > 100 µM | > 100 µM | > 100 µM | > 100 µM | > 100 µM | > 100 µM | > 100 µM
9 | COc1ccc(N2C(=O)C3c4[nH]c5c(C)cccc5c4C4CCC(C(C)C)CC4C3C2=O)cc1 (configuration not stated) | 22 µM | 19.9 µM | 27.2 µM | 13.8 µM | 9.4 µM | 5.86 µM | 31.2 µM | 29.2 µM | 36.1 µM
10 | O=c1c2cc(Br)cc(Br)c2[nH]c(=S)n1-c1ccc(N=Nc2ccc(O)c3cccnc23)cc1 | 57.5 µM | > 100 µM | 60.8 µM | > 100 µM | > 100 µM | > 100 µM | > 100 µM | > 100 µM | > 100 µM
11 | CCc1nc(N)c2nc(-c3cccs3)oc2n1 | > 100 µM | > 100 µM | > 100 µM | > 100 µM | > 100 µM | > 100 µM | > 100 µM | > 100 µM | > 100 µM
12 | O=P1(N(CCCl)CCCl)Oc2ccc(Cl)cc2C(C(Cl)(Cl)Cl)c2cc(Cl)ccc2O1 (configuration not stated) | > 100 µM | 33.4 µM | 42.9 µM | 18.9 µM | 37.9 µM | > 100 µM | > 100 µM | 87.7 µM | 50.9 µM
13 | Nc1[nH]c(=O)nc2c1ncn2C1OC(CO)C(O)C1O (configuration not stated) | > 100 µM | > 100 µM | > 100 µM | > 100 µM | 20.6 µM | > 100 µM | 66.3 µM | > 100 µM | > 100 µM
14 | C[C@]12CC[C@H]3[C@@H](CC=C4C[C@@H](N5CCCC5)CC[C@@]43C)[C@@H]1C[C@H](N1CCCCC1)[C@@H]2O | > 100 µM | > 100 µM | > 100 µM | > 100 µM | > 100 µM | 49.6 µM | > 100 µM | > 100 µM | > 100 µM
15 | COC1(CC[C@@H](C)COC2OC(CO)C(O)C(O)C2O)OC2C[C@H]3[C@@H]4CC[C@H]5C[C@@H](OC6OC(CO)C(OC7OC(CO)C(O)C(O)C7O)C(O)C6OC6OC(C)C(O)C(O)C6O)[C@H](O)C[C@]5(C)[C@H]4CC[C@]3(C)C2[C@@H]1C (some centres not stated) | 3.99 µM | 5.02 µM | 4.63 µM | 4.99 µM | 3.49 µM | 7.81 µM | 3.92 µM | 4.55 µM | 4.52 µM
16 | Cn1c(=O)c2c(nc3[nH]c(=O)c(Br)cn32)n(C)c1=O | > 100 µM | > 100 µM | > 100 µM | > 100 µM | > 100 µM | > 100 µM | > 100 µM | > 100 µM | > 100 µM
17 | COc1cc(CCNC2=CC(=O)c3nc[nH]c3C2=O)ccc1O | > 100 µM | 82.2 µM | 62.3 µM | 53.9 µM | 40.4 µM | > 100 µM | 34.6 µM | 32.5 µM | 86.8 µM
18 | N#Cc1nc(CCc2nc(C#N)c(N)o2)oc1N | > 10 µM | > 10 µM | > 10 µM | > 10 µM | > 10 µM | > 10 µM | > 10 µM | > 10 µM | > 10 µM
